Data as given in patent US11590119B2, “(S)-2-(1-(5-(cyclohexylcarbamoyl)-6-(propylthio)pyridin-2-yl)piperidin-3-yl)acetic acid for use in medicine” (University of Leeds, priority 2019, dated 2023).

Tests used:
11β-HSD1 mRNA expression = 11β-HSD1 mRNA expression in cultured human dermal fibroblasts; type: cell-based; settings: HDFs in culture; cortisol 24 h; IL-1β 10 ng/mL; cortisol 100 nM in combination
skin wounds [1] = test: Phase II trial in T2DM: deep learning segmentation of OCT wound images; type: in vivo, human; settings: day 30, 2 days after wounding at day 28, p<0.05
Description: FIG. 17: 2D OCT image of wound segmented into compartments. i) void; ii) intact tissue; iii) wound collagen; iv) wound with sponginess morphology; v) neoepidermis; vi) clot & vii) blood (in liquid form).
FIG. 18: Figure illustrating the improved amount of A) neoepidermis and B) clot volume two days after wounding and after 30 days of treatment with AZD4017 (AZD) and placebo (PBO).
To further understand the effects of AZD4017 in the wound healing process a deep learning based image processing method was developed for recognising different sub-tissue components from optical coherence tomography (OCT) images. The method was based on a u-net convolutional neural network (see Ronneberger O., Fischer P., Brox T. (2015) U-Net: Convolutional Networks for Biomedical Image Segmentation. In: Navab N., Hornegger J., Wells W., Frangi A. (eds) Medical Image Computing and Computer-Assisted Intervention—MICCAI 2015. MICCAI 2015. Lecture Notes in Computer Science, vol 9351. Springer, Cham. https://doi.org/10.1007/978-3-319-24574-4_28). […]
Further morphological image processing was then performed to the labelled image as post processing processes to show meaningful continuous regions of sub-tissue components. As a result, the area (mm^2) of each sub-tissue components could be calculated. In addition the volume (mm^3) of each sub-tissue components across 120 slices of tissues were also determined. […]

MMP7 and TGM2 expression = test: Protein profiling (Sciomics) and RNAseq of primary human dermal fibroblasts; type: cell-based; settings: HDFs, IL-1β+cortisone+AZD4017, n=3
Description: Protein profiling (Sciomics) conducted on primary human dermal fibroblasts (HDF) treated with vehicle, IL-1β, IL-1β+cortisone or IL-1β+cortisone+the selective 11β HSD1 inhibitor AZD4017 (n=3, same HDF as for RNAseq experiments) identified a number of proteins regulated by 11β-HSD1. […] The proteins found to be regulated by 11β-HSD1 include MMP7 and TGM2. […] Regulation of MMP7 by GC has to the best of our knowledge not previously been reported (Velasco, J., et al., J Biol Chem, 2011. 286(29): p. 26016-27).

epidermis = test: Phase II trial in T2DM: epidermal thickness by OCT; type: in vivo, human; settings: day 35, 400 mg twice daily
Description: FIG. 14: Epidermal thickness (μm) in the placebo (PBO) and AZD4017 (AZD) treated arms after 35 days.
As noted above, glucocorticoid therapy is known to cause skin thinning and dispose patients to the development of chronic wounds. Epidermal thickness was measured by OCT at Visits 1 (day 0) and 6 (day 35, i.e. after 35 days of treatment with 400 mg AZD4017, twice daily). Results from these measurements are presented alongside the confidence interval in the measurements at day 35.

11β-HSD1 [2] = target: T1, 11β-HSD1 (Homo sapiens, UniProt P28845); settings: cited from earlier work
11β-HSD1 [3] = target: T1, 11β-HSD1; settings: abdominally obese healthy adult male volunteers, daily oral dosing
Description: In more detail, a Phase I study using AZD4017 in abdominally obese healthy adult male volunteers involved an assessment of 11β-HSD1 inhibition in human adipose tissue as a function of time following daily oral dosing of the inhibitor (11β-HSD1 activity was assessed by an assay measuring the conversion of cortisone to cortisol in adipose tissue samples). […] Tachyphylaxis was also investigated with an additional AstraZeneca 11β-HSD1 inhibitor, AZD8329, from a different chemical series (see Morentin Gutierrez et al, Br J Pharmacol […], 172, 4806-16).
FIG. 1: Conversion of ^3H cortisone [20 nM] to ^3H cortisol (%/100 mg adipose tissue) after repeated dosing of AZD4017.

skin wounds [4] = test: Phase II trial in T2DM: wound gap diameter of punch biopsy wounds by OCT; type: in vivo, human
Description: FIG. 13: Wound healing in placebo (PBO) and AZD4017 (AZD) treated cohorts as evidenced by wound gap diameter of wounds inflicted at days 0 and 28 at days 2 and 30, respectively. Confidence intervals for measurements are provided to right.
Both biopsies from visit 1 (day 0) and two biopsies from visit 4 (day 28) were imaged by OCT at Visits 2, 3, 5 and 6 as appropriate. Optical coherence tomography OCT (Greaves, N. S., et al., Br J Dermatol, 2014. 170(4): p. 840-50) has proven a useful tool for the evaluation of wound re-epithelialization. OCT uses light to capture sub-micrometre resolution, three-dimensional images from within biological tissue (e.g. skin). The method is based on low-coherence interferometry, typically employing near-infrared light. The use of relatively long wavelength light allows it to penetrate 1-2 mm into the tissue. In addition to wound diameter, collected images capture information on vascularization.
The procedure takes approximately 2 minutes using a small probe applied to the skin. The procedure is non-invasive and pain-free. Image files (including enrolment number, visit number and date) were stored on the OCT machine until the end of the trial, then transferred to a secure server, compiled, analysed and values for wound diameter entered into the case report form (CRF).
The initial wounds created by puncture at days 0 and 28, respectively, were 3 mm in diameter. Treatment with AZD4017 (400 mg, twice daily oral) was initiated on day 0 and maintained for 35 days.
Thus administration of AZD4017 […] delivered a significant improvement in the rate of wound healing.

[5] = Phase II trial in T2DM: adverse effects; type: in vivo, human; settings: T2DM patients, 400 mg twice daily oral, 35 days
Description: AD4017 is thus identified for the first time as a safe and effective agent with therapeutic and prophylactic potential for the treatment of wound healing in patient populations susceptible to the development of chronic wounds and the complications associated therewith.

[6] = system: fibroblasts and endothelial cell co-culture; test: Angiogenesis co-culture assay with HDF conditioned media (tube length, branch points); type: cell-based, human; settings: conditioned media of HDFs treated with IL-1β+200 nM cortisone+1 μM AZD4017, 7 days in culture
Description: In order to further study the effects of AZD4017 on angiogenesis in a quantitative manner, a further related experiment to that described above was performed. In this model in vitro cultured human dermal fibroblasts were treated with a) 10 ng/ml IL-1β, b) IL-1β+100 nM cortisol, c) IL-1β+200 nM cortisone or d) IL-1β+cortisone+1 μM AZD4017 (selective 11β-HSD1 inhibitor).

11β-HSD1 [7] = target: T1, 11β-HSD1; test: 11β-HSD1 activity (conversion of cortisone to cortisol) in primary human dermal fibroblasts; type: cell-based; parameters: from tissue; host or cells: adipose tissue of abdominally obese healthy adult male volunteers
Description: FIG. 5: 11β-HSD1 activity in primary human dermal fibroblasts.
In order to investigate the effects, prevalence and relevance of 11β-HSD1 in human skin and diabetic wound healing the effects of the proinflammatory cytokine, IL-1β on human dermal fibroblasts (HDFs) in culture was assessed in the preclinical setting. […] In these experiments RU486 (mifepristone) was used as a competitive cortisol antagonist.

stratum corneum = test: Phase II trial in T2DM: N tapes, tape stripping to a pre-specified TEWL; type: in vivo, human; settings: after 4 weeks treatment
Description: FIG. 16: The number of tapes (N tapes) required to achieve the equivalent amount of barrier disruption in the placebo (PBO) and AZD4017 (AZD) treated arms at day 28. Confidence intervals are presented to the right.
A further way in which the skin quality of patients treated with AZD4017 was evaluated involved stripping of the skin with adhesive patches to achieve a consistent damage level as established by transepidermal water loss (TEWL), a measure of the permeability of the skin barrier.
In more detail, evaporation of water from the skin occurs as part of normal skin metabolism. As barrier function is disrupted, water loss increases. The Tewameter® TM 300 probe (commercially available from Courage and Khazaka Electronic GmbH, 50829 Köln, Germany) measures the density gradient of the water evaporation from the skin by two pairs of sensors (temperature and relative humidity) inside a hollow cylinder. […]
Adhesive patches (D-Squame® tapes, from D-Squame, Clinical and Derm LLC, Dallas, Tex., www.clinicalandderm.com) were used to gently remove the stratum corneum layers to a pre-specified TEWL (trans-epidermal water loss) rate from the lower inner forearm at Visits 1 and 4. […] At day, after 4 weeks treatment, the number of tapes required to induce the same level of damage on the skin as evaluated by this technique was 43% higher in the 11β-HSD1 inhibitor treated cohort than in the placebo arm.

HUVEC tubule formation = test: HUVEC tubule formation, in vitro model of angiogenesis; type: cell-based, human; settings: IL-1β 10 ng/ml; cortisone 200 nM; AZD4017 1 μM with cortisone; biological n=1
11β-HSD = settings: mice, topical treatment, oral corticosterone; cited from earlier work

T1 sequence (P28845 whole entry): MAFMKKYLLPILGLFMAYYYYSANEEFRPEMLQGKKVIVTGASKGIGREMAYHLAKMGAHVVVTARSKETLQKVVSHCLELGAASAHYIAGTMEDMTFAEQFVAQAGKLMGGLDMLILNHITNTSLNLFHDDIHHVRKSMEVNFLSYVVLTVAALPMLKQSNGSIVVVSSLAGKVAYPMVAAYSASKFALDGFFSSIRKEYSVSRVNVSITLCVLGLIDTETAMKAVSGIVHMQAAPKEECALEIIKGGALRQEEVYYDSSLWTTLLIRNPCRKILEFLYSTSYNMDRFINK

Molecule: C[C@]12CCC(=O)C=C1CC[C@@H]1[C@@H]2[C@@H](O)C[C@@]2(C)[C@H]1CC[C@]2(O)C(=O)CO [cortisol, reference compound]
- increase in 11β-HSD1 mRNA expression (11β-HSD1 mRNA expression): 6 fold

Molecule: CCCSc1nc(N2CCC[C@@H](CC(=O)O)C2)ccc1C(=O)NC1CCCCC1 [AZD4017, (S)-2-(1-(5-(cyclohexylcarbamoyl)-6-(propylthio)pyridin-2-yl)piperidin-3-yl)acetic acid]
- volume of clots in the wound site compared to placebo (skin wounds [1]): statistical significant increases
- volume of neoepidermis in the wound site compared to placebo (skin wounds [1]): statistical significant increases
- MMP7 protein and gene expression (MMP7 and TGM2 expression): downregulated MMP7
- TGM2 protein and gene expression (MMP7 and TGM2 expression): stimulate TGM2 protein and gene expression
- epidermal depth greater than the placebo arm (epidermis): 5.58 μm
- cortisol levels in the adipose tissues (11β-HSD1 [2]; after 9 days dosing, versus before dosing): higher than those measured before dosing commenced
- inhibition of 11β-HSD1 activity in adipose tissue (11β-HSD1 [2]; after 9 days of treatment, as quoted from Freude): not observed after 9 days of treatment
- inhibition of 11β-HSD1 activity in adipose tissue vs baseline (11β-HSD1 [2]; after single doses, as quoted from Freude): 50%
- 11β-HSD1 activity in adipose tissue relative to baseline (11β-HSD1 [3]; day 1): reduced 11β-HSD1 activity relative to baseline
- net 11β-HSD1 activity in adipose tissue post-dose versus baseline level on day 0 (11β-HSD1 [3]; day 9 post dose): still greater than the baseline level on day 0
- mean wound gap diameter (skin wounds [4]; day 2, 3 mm wound inflicted at day 0, 400 mg twice daily oral from day 0): 0.98 mm
- improvement in the extent of healing relative to placebo arm (skin wounds [4]; day 2, wound inflicted at day 0): 35%
- mean wound gap (skin wounds [4]; day 30, 3 mm wound inflicted at day 28, after 4 weeks pretreatment): 0.67 mm
- improvement in the extent of healing relative to placebo arm (skin wounds [4]; day 30, wound inflicted at day 28): 55%
- adverse effects in the treatment cohort [5]: no significant adverse effects
- IL-1β stimulated tube formation (tube length, number of branch points) [6]: decreased the negative effects of cortisone/cortisol
- effect on 11β-HSD1 enzyme activity and production of F (cortisol) (11β-HSD1 [7]; 1 μM, over 18 h, HDFs pretreated with IL-1β and cortisol): completely blocked the enzyme activity
- number of tapes required to induce the same level of damage, higher than in the placebo arm (stratum corneum): 43%
- tubule formation (HUVEC tubule formation): the same IL-1β stimulated tubule formation as observed in the absence of cortisone

Molecule: CC1(C)[C@@H](OC(=O)CCC(=O)O)CC[C@]2(C)[C@H]3C(=O)C=C4[C@@H]5C[C@@](C)(C(=O)O)CC[C@]5(C)CC[C@@]4(C)[C@]3(C)CC[C@@H]12 [carbenoxolone, reference compound]
- effect on delay in wound healing caused by corticosteroid excess (11β-HSD): reverse the delay in wound healing
- inhibition of conversion of E to F (11β-HSD1 [7]; 25 μM, 18 h, HDFs pretreated with IL-1β and cortisol): did not significantly inhibit

Molecule: IL-1β: interleukin 1β (pro-inflammatory cytokine)
- increase in conversion of cortisone (E) to cortisol (F) relative to untreated HDFs (11β-HSD1 [7]; 24 h IL-1β pretreatment, conversion over 48 h): 6 fold
- tubule formation (HUVEC tubule formation): stimulate tubule formation
- increase in 11β-HSD1 mRNA expression (11β-HSD1 mRNA expression): 10 fold

Molecule: C[C@]12CCC(=O)C=C1CC[C@@H]1[C@@H]2C(=O)C[C@@]2(C)[C@H]1CC[C@]2(O)C(=O)CO [cortisone, reference compound]
- tubule formation (HUVEC tubule formation): blocked
